These are literature values, as cited in publication PMC3468400, “Pharmacokinetic profiles of artesunate following multiple intravenous doses of 2, 4, and 8 mg/kg in healthy volunteers: Phase 1b study” (Malaria Journal, 2012).

In this data set the test system is severe falciparum malaria. To be noted: AQUAMAT, cited from earlier work.

Turning to `C[C@H]1[C@H](OC(=O)CCC(=O)O)O[C@@H]2O[C@@]3(C)CC[C@H]4[C@H](C)CC[C@@H]1[C@@]24OO3` [AS, 4-(10’dihydro-artemisinin-oxymethyl) succinate], the “reduction of mortality versus quinine” value was 22.5%. Also, the mortality rate (severe malaria patients, intravenous treatment) is given as 8.5%.
